From US20030166622A1, “Vitamin D derivatives with acyloxy groups in the side chains, process for their production, and the use for the production of pharmaceutical agents” (Schering AG, priority 2001, published 2003)
“Also recorded” adds a separate entry of the source.

Columns and labels:
[1] = target: T1, vitamin D receptor (Sus scrofa, UniProt A3RGC1); assay: calcitriol-receptor test (competition with 3H-calcitriol, protein extract from intestines of juvenile pigs)
T1 sequence (A3RGC1 1-427): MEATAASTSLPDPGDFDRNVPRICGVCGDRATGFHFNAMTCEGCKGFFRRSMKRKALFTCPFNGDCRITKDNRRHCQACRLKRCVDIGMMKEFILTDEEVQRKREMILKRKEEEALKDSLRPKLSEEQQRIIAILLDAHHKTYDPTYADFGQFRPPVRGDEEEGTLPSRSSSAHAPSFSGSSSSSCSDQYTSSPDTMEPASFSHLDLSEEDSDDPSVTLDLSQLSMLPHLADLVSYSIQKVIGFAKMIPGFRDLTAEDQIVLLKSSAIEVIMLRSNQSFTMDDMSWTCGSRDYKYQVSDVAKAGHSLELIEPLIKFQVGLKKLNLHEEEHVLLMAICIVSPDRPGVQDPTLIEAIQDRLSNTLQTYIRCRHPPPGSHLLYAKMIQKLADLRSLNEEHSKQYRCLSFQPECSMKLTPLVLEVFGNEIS
Procedure: It is carried out using a protein extract from the intestines of juvenile pigs. […] To this end, 250 il of a charcoal-dextran suspension is fed to each test tube and incubated at 4° C. for 20 minutes. Then, the samples are centrifuged at 10,000 g for 5 minutes at 4° C. The supernatant is decanted and measured in a á-counter after 1 hour of equilibration in Picofluor 15™.
The competition curves that are obtained at various concentrations of test substance as well as of reference substance (unlabeled calcitriol) at constant concentration of the reference substance (^3H-calcitriol) are placed in relation to one another, and a competition factor (KF) is determined.
It is defined as a quotient of the concentrations of the respective test substance and the reference substance, which are necessary for 50% competition:
KF=Concentration of test substance at 50% competition
Concentration of reference substance at 50% competition

[2] = DNFB-induced allergic contact allergy in the mouse (DNFB-DTH); type: in vivo
Text: 58, 179-204 (1999)]. The model of the dinitrofluorobenzene (DNFB)-induced allergic contact allergy in the mouse represents an inflammatory skin disease with the background of an inflammatory reaction of the delayed type (delayed type hypersensitivity; DTH). The inflammatory phase of the contact allergy is triggered by a multi-phase reaction. A repeated contact with the topically effective contact allergen DNFB (25 il of a 0.5% (w/v) DNFB solution in acetone/olive oil 4:1 [v/v] on the shaved abdomen with a surface area of about 10 cm^2 on test days 0. and 1.) triggers an immune reaction, which results in the sensitization of the animals against the specific agent, without “visible” symptoms occurring. Only after a sensitization time of 4-5 days, in which populations of DNFB-specific lymphocytes of “memory” type have formed in the draining lymph nodes, can a renewed contact (20 il of a 0.5% (w/v) DNFB solution in acetone/olive oil 4:1 [v/v]) trigger an inflammatory skin reaction with the contact allergen at any skin area (here: on both ears, treated surface area/ear about 2 cm^2). This second phase, which is also referred to as the trigger or “challenge,” ends in an eczematous lesion on the second contact site. The evaluation of the extent of the inflammatory reaction or the success of treatment is performed routinely 24 hours after the triggering, since at this time, the parameters that are to be analyzed (ear thickness and cell infiltration as a yardstick for the edema) have reached a plateau. The model of the DNFB-induced contact allergy allows the examination of the action of systemically or topically administered test substances with immunosuppressive/immunomodulating or inflammation-inhibiting properties. In the study on immunomodulating properties of calcitriol derivatives, the latter are administered once daily intragastrically in physiological common salt solution (0.9% NaCl) with an admixture of 0.085% Myrj 53) around the time of sensitization (beginning two days before and one day before sensitization, on the day of sensitization and on day 1 and 2 after sensitization). As side-effect parameters that are typical of vitamin D, the determination of the calcium level in the urine of the treated animals is used at the latest 24 hours after the last treatment with the substance. The calcium content is determined by flame-photometry. The significance of differences occurring between substance groups and controls as well as between test substance and reference substance are supported with suitable statistic processes. The therapeutic range of the test substances and calcitriol as a reference substance is indicated as a dose ratio DR (DR=factor of hypercalcemic threshold dose/immunosuppressive threshold dose).

[3] = system: HL 60 cells; assay: differentiation induction of HL 60 cells to macrophages (NBT reduction); type: cell-based, human; conditions: relative to calcitriol; 96 hours incubation
Procedure: The differentiation-stimulating action of calcitriol analogs is also detected quantitatively.
It is known in the literature [D. J. Mangelsdorf et al., J. Cell. Biol. 98, 391 (1984)] that the treatment of human leukemia cells (promyelocyte cell line HL 60) in vitro with calcitriol induces the differentiation of cells to macrophages.
HL 60 cells are cultivated in tissue culture medium (RPMI 10% fetal calf serum) at 37° C. in an atmosphere of 5% CO2 in air.
For substance testing, the cells are centrifuged off, and 2.0×10^5 cells/ml in phenol red-free tissue culture medium are taken up. The test substances are dissolved in ethanol and diluted to the desired concentration with tissue culture medium without phenol red. The dilution stages are mixed with the cell suspension at a ratio of 1:10, and 100 il each of this cell suspension that is mixed with substance is pipetted into an indentation of a 96-hole plate. For control, a cell suspension is mixed analogously with the solvent.
After incubation for 96 hours at 37° C. in 5% CO2 in air, 100 il of an NBT-TPA solution (nitro blue tetrazolium (NBT), final concentration in the batch of 1 mg/ml, tetradecanoyl phorbolmyristate-13-acetate (TPA), final concentration in the batch of 2×10^−7 mol/l) is pipetted into each indentation of the 96-hole plate in the cell suspension.
By incubation for 2 hours at 37° C. and 5% CO2 in air, NBT is reduced to insoluble formazan because of the intracellular oxygen radical release, stimulated by TPA, in the cells that are differentiated to macrophages.
To complete the reaction, the indentations of the 96-hole plate are suctioned off, and the cells are affixed to the bottom of the plate by adding methanol and dried after affixing. To dissolve the intracellular formazan crystals that are formed, 100 il of potassium hydroxide (2 mol/l) and 100 il of dimethyl sulfoxide are pipetted into each indentation and ultrasonically treated for 1 minute. The concentration of formazan is measured by spectrophotometry at 650 nm.
As a yardstick for the differentiation induction of HL 60 cells to macrophages, the concentration of formed formazan applies.

[4] = acute hypercalcemic action in rats (serum calcium after one-time subcutaneous administration); type: in vivo, rat; conditions: relative to calcitriol, male rats
Procedure: To determine the acute hypercalcemic action of various calcitriol derivatives, the test that is described below is carried out:
The action of control (solution base), reference substance (1,25-dihydroxy vitamin D3=calcitriol) and test substance is tested in each case after one-time subcutaneous administration in groups of 10 healthy male rats (140-170 g). During the testing time, the rats are kept in special cages to determine the excretion of water and mineral substances. Urine is collected in 2 fractions (0-16 hours and 16-22 hours). An oral dose of calcium (0.1 mmol of calcium in 6.5% alpha-hydroxypropyl cellulose, 5 ml/animal) replaces at 1600 hours the calcium intake that is lacking by food deprivation. At the end of the test, the animals are sacrificed by decapitation and exsanguinated to determine the serum-calcium values. For the primary screening test in vivo, an individual standard dose (200 ig/kg) is tested. For selected substances, the result is supported by establishing a dose-effect relation.
A hypercalcemic action is shown in serum-calcium level values that are higher than in the control.
The significance of differences occurring between substance groups and controls as well as between test substance and reference substance are supported with suitable statistical processes.

With `C=C1/C(=C\C=C2/CCC[C@]3(C)[C@@H]([C@H](C)CC[C@@H](OC(=O)C(C)(C)C)C4(c5ncc(CCCC)o5)CC4)CC[C@@H]23)C[C@@H](O)C[C@@H]1O` [Compound 5b] the “KF (competition factor: concentration of test substance / reference substance at 50% competition)” value ([1]; relative to unlabeled calcitriol, 3H-calcitriol 5x10^-10 mol/l, 2 hours at 4° C) was greater than 100, the activity in vitro ([1]; result in words, summary of the in vitro tests of the table (calcitriol-receptor test and HL 60)) was “inactivity; also recorded: deficient activity” and the “activity in vivo (prevention of the formation of edemas)” value ([2]; result in words, contact allergy in the mouse) was “therapeutically active in vivo”. For the same compound, the “DR (Hypercalcemic threshold dose/ immunosuppressive threshold dose)” value ([2]; therapeutic range, mouse, once daily intragastrically around sensitization, calcium level in urine as side-effect parameter) was 20,000, the “DR (HL 60) (dose ratio test substance/reference substance for comparable semi-maximum actions)” value [3] was greater than 170 and the “DR (Ca) (dose ratio for hypercalcemia, test substance dose/reference substance dose for comparable actions)” value [4] was greater than 1000.
